Experimental data taken from US20020026053A1, “Novel 3-(substituted) -2- indolinones compounds and use thereof as inhibitors of protein kinase activity” (priority 1997, published 2002).

Columns and labels:
EGFR = biological target: T1, EGFR (Homo sapiens, UniProt P00533); assay: Biochemical EGFR Assay; set-up: concentration or dose not given beside the values
T1 construct: endogenous in cells; host or cells: A431 cells (lysate, captured with SUMO1 anti-EGFR antibody)
In short: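 EGFR from A431 lysate was captured on anti-EGFR-coated wells and preincubated 30 min with compound (diluted 1:10 in TBS) at room temperature. After ATP/MnCl2 phosphorylation for 5 min, the reaction was stopped with EDTA. Phosphotyrosine was detected by ELISA (anti-phosphotyrosine, peroxidase conjugate, ABTS) at 410 nm.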

PDGF-R = PDGF-R Assay (cellular ELISA, U1242 cells); type: cell-based; set-up: concentration or dose not given beside the values
In short: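 U1242 cells seeded in 0.5% serum, serum-starved, then exposed to compound for 2 hr at 37°C before 5–10 min ligand stimulation and lysis in HNTG. Lysate captured on receptor-antibody-coated plates; phosphotyrosine detected with polyclonal anti-pTyr, goat anti-rabbit IgG and ABTS/H2O2, A410 (ref 630 nm), versus untreated cells.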

T1 sequence (P00533 25-1210): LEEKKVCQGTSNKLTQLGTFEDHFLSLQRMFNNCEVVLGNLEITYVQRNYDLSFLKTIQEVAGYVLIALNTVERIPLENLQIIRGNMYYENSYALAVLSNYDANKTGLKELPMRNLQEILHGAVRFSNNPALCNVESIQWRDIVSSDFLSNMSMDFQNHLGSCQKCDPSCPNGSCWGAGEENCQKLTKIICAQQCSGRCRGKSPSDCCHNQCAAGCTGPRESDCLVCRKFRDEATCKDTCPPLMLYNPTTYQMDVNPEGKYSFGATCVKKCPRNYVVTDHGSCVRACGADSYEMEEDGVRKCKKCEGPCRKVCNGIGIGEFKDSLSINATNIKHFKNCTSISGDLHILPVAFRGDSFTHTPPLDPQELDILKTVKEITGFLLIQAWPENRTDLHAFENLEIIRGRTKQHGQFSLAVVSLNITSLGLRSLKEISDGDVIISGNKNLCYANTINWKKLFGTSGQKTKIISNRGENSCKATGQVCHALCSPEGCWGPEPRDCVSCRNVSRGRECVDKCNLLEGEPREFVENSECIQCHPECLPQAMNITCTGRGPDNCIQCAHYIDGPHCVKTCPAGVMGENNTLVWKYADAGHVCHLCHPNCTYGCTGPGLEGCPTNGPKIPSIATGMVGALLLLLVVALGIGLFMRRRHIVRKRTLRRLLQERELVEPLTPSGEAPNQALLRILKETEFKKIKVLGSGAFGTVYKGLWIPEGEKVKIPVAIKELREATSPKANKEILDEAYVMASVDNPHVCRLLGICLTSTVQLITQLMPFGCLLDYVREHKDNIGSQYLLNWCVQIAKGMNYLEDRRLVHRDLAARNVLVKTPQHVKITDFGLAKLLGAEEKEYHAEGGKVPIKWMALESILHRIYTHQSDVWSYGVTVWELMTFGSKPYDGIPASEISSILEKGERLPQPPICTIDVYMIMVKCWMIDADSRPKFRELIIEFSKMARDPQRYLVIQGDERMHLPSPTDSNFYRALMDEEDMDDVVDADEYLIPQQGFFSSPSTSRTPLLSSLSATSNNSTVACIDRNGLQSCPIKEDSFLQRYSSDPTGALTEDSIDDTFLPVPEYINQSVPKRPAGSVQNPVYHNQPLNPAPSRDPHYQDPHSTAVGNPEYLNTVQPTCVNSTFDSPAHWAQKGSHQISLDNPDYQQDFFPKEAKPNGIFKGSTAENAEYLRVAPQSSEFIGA

| Compound | Biochem EGFR % Inhibition (P.167) (EGFR) [%] | PDGF Kinase % Inhibition (P.119) (PDGF-R) [%] |
| --- | --- | --- |
| CCOc1ccccc1C=C1C(=O)Nc2c(Br)cc(Br)c(C)c21 [10717/H02] | 3.5 | – |
| Cc1c(Br)cc(Br)c2c1C(=Cc1cccs1)C(=O)N2 [10717/H03] | 25.7 | – |
| Cc1c(Br)cc(Br)c2c1C(=Cc1cccn1C)C(=O)N2 [10717/H04] | 6.8 | – |
| COc1ccc(C=C2C(=O)Nc3c(Br)cc(Br)c(C)c32)cc1OC [10720/H04] | −49.6 | – |
| Cc1c(Br)cc(Br)c2c1C(=Cc1ccccc1O)C(=O)N2 [10720/H05] | −29.0 | – |
| Cc1c(Br)cc(Br)c2c1C(=Cc1ccccc1)C(=O)N2 [10720/H06] | −52.4 | – |
| CSc1ccc(C=C2C(=O)Nc3c(Br)cc(Br)c(C)c32)s1 [10720/H07] | −49.8 | – |
| Cc1cc(O)cc(O)c1C=C1C(=O)Nc2c(Br)cc(Br)c(C)c21 [10720/H08] | −55.8 | – |
| CCOc1cc(C=C2C(=O)Nc3c(Br)cc(Br)c(C)c32)ccc1O [10720/H09] | −66.8 | – |
| COc1ccc(O)c(C=C2C(=O)Nc3c(Br)cc(Br)c(C)c32)c1 [10720/H10] | −62.8 | – |
| Cc1c(Br)cc(Br)c2c1C(=Cc1ncc[nH]1)C(=O)N2 [10720/H11] | −19.3 | – |
| Cc1c(Br)cc(Br)c2c1C(=Cc1nc3ccccc3n1C)C(=O)N2 [10721/H02] | 20.1 | – |
| Cc1c(Br)cc(Br)c2c1C(=Cc1nn(C)cc1Cl)C(=O)N2 [10721/H03] | 29.2 | – |
| Cc1cc(C=C2C(=O)Nc3c(Br)cc(Br)c(C)c32)sc1C [10721/H04] | −8.5 | – |
| Cc1c(Br)cc(Br)c2c1C(=Cc1cc3c([nH]1)CCCC3)C(=O)N2 [10721/H05] | −12.4 | – |
| Cc1c(Br)cc(Br)c2c1C(=Cc1cc([N+](=O)[O-])cc(CCl)c1O)C(=O)N2 [10721/H06] | 43.3 | – |
| Cc1c(Br)cc(Br)c2c1C(=Cc1ccc(Cl)s1)C(=O)N2 [10721/H07] | −20.5 | – |
| Cc1cc(C)c(C=C2C(=O)Nc3c(Br)cc(Br)c(C)c32)[nH]1 [10721/H08] | −6.8 | – |
| Cc1c(Br)cc(Br)c2c1C(=Cc1ccc(O)c(C(C)(C)C)c1)C(=O)N2 [10721/H09] | −10.4 | – |
| Cc1c(Br)cc(Br)c2c1C(=Cc1cc(Br)c(O)c(C(C)(C)C)c1)C(=O)N2 [10721/H10] | −3.9 | – |
| Cc1c(Br)cc(Br)c2c1C(=Cc1cc(C(C)(C)C)c(O)c(C(C)(C)C)c1)C(=O)N2 [10721/H11] | −21.3 | – |
| Cc1c(Br)cc(Br)c2c1C(=Cc1cc([N+](=O)[O-])c(O)c(C(C)(C)C)c1)C(=O)N2 [10722/H02] | 24.8 | 19.2 |
| Cc1c(Br)cc(Br)c2c1C(=Cc1c(O)cc(O)cc1O)C(=O)N2 [10722/H03] | 27.8 | 26.6 |
| Cc1c(Br)cc(Br)c2c1C(=Cc1ccc([N+](=O)[O-])s1)C(=O)N2 [10722/H04] | 8.6 | −26.1 |
| Cc1c(Br)cc(Br)c2c1C(=Cc1ccc(C(=O)O)cc1)C(=O)N2 [10722/H05] | 1.1 | 0.9 |
| Cc1c(Br)cc(Br)c2c1C(=Cc1ccc(F)cc1F)C(=O)N2 [10722/H06] | −2.0 | 18.6 |
| Cc1cc(C=C2C(=O)Nc3c(Br)cc(Br)c(C)c32)cc(C)c1O [10722/H07] | −24.8 | −16.9 |
| Cc1c(Br)cc(Br)c2c1C(=Cc1cc(Cl)c(O)c(C(C)(C)C)c1)C(=O)N2 [10722/H08] | −5.7 | −15.2 |

| Compound | Biochem EGFR % Inhibition (P.167) (EGFR) [%] | PDGF Kinase % Inhibition (P.119) (PDGF-R) [%] |
| --- | --- | --- |
| Cc1c(Br)cc(Br)c2c1C(=Cc1csc([N+](=O)[O-])c1)C(=O)N2 [10722/H09] | −7.4 | 17.5 |
| CCCCN(CCCC)c1ccc(C=C2C(=O)Nc3c(Br)cc(Br)c(C)c32)cc1 [10722/H10] | −11.2 | 7.2 |
| Cc1c(Br)cc(Br)c2c1C(=Cc1ccc(C(F)(F)F)cc1)C(=O)N2 [10722/H11] | −16.3 | 15.7 |
| Cc1c(Br)cc(Br)c2c1C(=Cc1ccc(O)c(O)c1O)C(=O)N2 [10723/H02] | 72.8 | 20.7 |
| COc1cccc(C=C2C(=O)Nc3c(Br)cc(Br)c(C)c32)c1O [10723/H03] | 6.3 | −30.6 |
| Cc1c(Br)cc(Br)c2c1C(=Cc1cc(O)c(O)c(Br)c1)C(=O)N2 [10723/H04] | 7.1 | 53.3 |
| CC(=O)Oc1ccc(C=C2C(=O)Nc3c(Br)cc(Br)c(C)c32)cc1OC(C)=O [10723/H05] | −17.3 | −12.6 |
| Cc1cc(C=C2C(=O)Nc3c(Br)cc(Br)c(C)c32)ccc1O [10723/H06] | −11.8 | −17.4 |
| Cc1c(Br)cc(Br)c2c1C(=Cc1ccccc1Br)C(=O)N2 [10723/H07] | −11.3 | −20.9 |
| Cc1c(Br)cc(Br)c2c1C(=Cc1ccc(O)cc1O)C(=O)N2 [10723/H08] | 69.9 | 4.1 |
| COc1ccc(C=C2C(=O)Nc3c(Br)cc(Br)c(C)c32)c(O)c1 [10723/H09] | −2.6 | 15.9 |
| Cc1c(Br)cc(Br)c2c1C(=Cc1cccc(Br)c1)C(=O)N2 [10723/H10] | −38.1 | −22.3 |
| Cc1c(Br)cc(Br)c2c1C(=Cc1cc(C(C)(C)C)cc(C(C)(C)C)c1O)C(=O)N2 [10723/H11] | −20.7 | 29.7 |
| Cc1c(Br)cc(Br)c2c1C(=Cc1ccc(N(C)C)c3ccccc13)C(=O)N2 [10724/H02] | 17.6 | 2.2 |
| Cc1c(Br)cc(Br)c2c1C(=Cc1ccc(O)c([N+](=O)[O-])c1)C(=O)N2 [10724/H03] | 0.3 | −7.6 |
| Cc1c(Br)cc(Br)c2c1C(=Cc1ccc([N+](=O)[O-])c(O)c1)C(=O)N2 [10724/H04] | 14.0 | −13.1 |
| Cc1c(Br)cc(Br)c2c1C(=Cc1cc3c4c(c1O)CCCN4CCC3)C(=O)N2 [10724/H05] | −1.3 | −19.4 |
| Cc1c(Br)cc(Br)c2c1C(=Cc1cc(C(C)C)c(O)c(C(C)C)c1)C(=O)N2 [10724/H06] | −8.2 | −20.8 |
| Cc1c(Br)cc(Br)c2c1C(=Cc1cc3ccccc3o1)C(=O)N2 [10724/H07] | −19.3 | −39.6 |
| COc1cc(O)c(C=C2C(=O)Nc3c(Br)cc(Br)c(C)c32)c(OC)c1 [10724/H08] | −19.7 | −9.0 |
| Cc1c(Br)cc(Br)c2c1C(=Cc1cccn1-c1ccc(Cl)cc1)C(=O)N2 [10724/H09] | −33.5 | −13.1 |
| CCc1ccc(C=C2C(=O)Nc3c(Br)cc(Br)c(C)c32)o1 [10724/H10] | −25.5 | −2.7 |
| Cc1c(Br)cc(Br)c2c1C(=Cc1sc3scc(C)c3c1C)C(=O)N2 [10724/H11] | −12.8 | −31.2 |
| Cc1c(Br)cc(Br)c2c1C(=Cc1sccc1Br)C(=O)N2 [10725/H02] | −23.5 | −19.9 |
| COc1ccc(Br)c(C=C2C(=O)Nc3c(Br)cc(Br)c(C)c32)c1O [10725/H03] | −16.5 | −12.8 |
| Cc1ccc(C=C2C(=O)Nc3c(Br)cc(Br)c(C)c32)o1 [10725/H04] | 17.2 | −4.1 |
| Cc1cc(C=C2C(=O)Nc3c(Br)cc(Br)c(C)c32)[nH]n1 [10725/H05] | −30.2 | 14.6 |
